From patent US12540129B2, “KIF18A inhibitors” (AMGEN INC., priority 2019, dated 2026)

Molecular target: T1, Recombinant human KIF18A (1-467 His-tagged) protein (Homo sapiens, UniProt Q8NI77)
T1 construct: Recombinant human KIF18A (1-467 His-tagged) protein; His; made in house
Assay: KIF18A Enzyme Assay: microtubule-stimulated ATPase activity (ADP-Glo)
Assay type: biochemical
Details: 30 nM KIF18A, 75 μM ATP
Summary of the method: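 ADP-Glo luminescence reports ADP produced by His-tagged human KIF18A motor domain (1-467, insect-cell expressed) with microtubules and ATP.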

T1 sequence (Q8NI77 1-467): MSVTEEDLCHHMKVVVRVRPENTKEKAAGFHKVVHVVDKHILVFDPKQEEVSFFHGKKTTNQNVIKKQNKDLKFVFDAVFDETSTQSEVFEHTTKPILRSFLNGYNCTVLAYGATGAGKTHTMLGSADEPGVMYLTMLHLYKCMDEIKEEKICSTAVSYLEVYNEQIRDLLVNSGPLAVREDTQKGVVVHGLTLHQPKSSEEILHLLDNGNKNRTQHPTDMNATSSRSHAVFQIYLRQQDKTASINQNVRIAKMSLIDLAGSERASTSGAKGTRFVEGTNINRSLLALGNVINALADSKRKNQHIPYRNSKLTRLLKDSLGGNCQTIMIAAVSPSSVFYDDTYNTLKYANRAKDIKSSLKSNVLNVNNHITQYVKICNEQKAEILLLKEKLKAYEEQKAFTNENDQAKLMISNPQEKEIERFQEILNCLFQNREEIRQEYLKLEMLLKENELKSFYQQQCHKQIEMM
T1 sequence (P02550 whole entry partner): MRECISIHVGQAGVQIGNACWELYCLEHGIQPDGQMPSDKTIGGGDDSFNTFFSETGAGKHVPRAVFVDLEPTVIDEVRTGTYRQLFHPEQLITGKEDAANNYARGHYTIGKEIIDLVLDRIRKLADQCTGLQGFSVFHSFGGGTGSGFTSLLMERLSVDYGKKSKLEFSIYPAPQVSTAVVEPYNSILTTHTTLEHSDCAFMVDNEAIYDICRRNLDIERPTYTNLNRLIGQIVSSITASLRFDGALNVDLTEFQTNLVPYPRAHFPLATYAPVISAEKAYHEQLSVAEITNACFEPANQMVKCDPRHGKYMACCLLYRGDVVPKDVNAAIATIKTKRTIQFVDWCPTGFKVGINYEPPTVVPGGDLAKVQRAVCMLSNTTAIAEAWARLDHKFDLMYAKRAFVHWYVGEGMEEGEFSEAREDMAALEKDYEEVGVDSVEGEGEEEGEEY
T1 sequence (P02554 whole entry partner): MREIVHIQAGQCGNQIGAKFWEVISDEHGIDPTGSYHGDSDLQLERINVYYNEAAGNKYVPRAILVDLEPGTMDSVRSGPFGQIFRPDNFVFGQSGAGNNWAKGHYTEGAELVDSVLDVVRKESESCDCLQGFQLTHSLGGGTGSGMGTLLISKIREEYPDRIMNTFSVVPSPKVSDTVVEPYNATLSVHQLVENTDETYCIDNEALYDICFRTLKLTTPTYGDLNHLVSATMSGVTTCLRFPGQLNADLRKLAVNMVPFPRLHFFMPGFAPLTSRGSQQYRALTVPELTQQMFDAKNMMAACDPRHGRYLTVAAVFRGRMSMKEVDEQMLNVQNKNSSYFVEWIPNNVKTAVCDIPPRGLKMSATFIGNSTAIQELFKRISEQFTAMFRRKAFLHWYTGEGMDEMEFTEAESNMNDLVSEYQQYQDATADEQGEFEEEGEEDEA

Row | IC50 [nM] | SMILES
1 | 253 | O=C(Nc1cccc(S(=O)(=O)C2CCCC2)c1)c1ccncc1N1CCC2(CC1)CC2 [Example 114-1, N-(3-(cyclopentylsulfonyl)phenyl)-3-(6-azaspiro[2.5]octan-6-yl)isonicotinamide]
2 | 735 | O=C(Nc1cccc(S(=O)(=O)C2CCCC2)c1)c1ccncc1N1CCC2(CC1)CC2(F)F [Example 114-2, N-(3-(cyclopentylsulfonyl)phenyl)-3-(1,1-difluoro-6-azaspiro[2.5]octan-6-yl)isonicotinamide]
3 | 577 | O=C(Nc1ccc(Br)c(C(=O)N2CCCC(F)(F)C2)c1)c1ccncc1N1CCC2(CC1)CC2 [Example 115-1, N-(4-bromo-3-(3,3-difluoropiperidine-1-carbonyl)phenyl)-3-(6-azaspiro[2.5]octan-6-yl)isonicotinamide]
4 | 735 | O=C(Nc1ccc(Cl)c(C(=O)N2CCCC(F)(F)C2)c1)c1ccncc1N1CCC2(CC1)CC2 [Example 115-2, N-(4-chloro-3-(3,3-difluoropiperidine-1-carbonyl)phenyl)-3-(6-azaspiro[2.5]octan-6-yl)isonicotinamide]
5 | 1670 | O=C(Nc1ccc(F)c(C(=O)N2CCCC(F)(F)C2)c1)c1ccncc1N1CCC2(CC1)CC2 [Example 115-3, N-(3-(3,3-difluoropiperidine-1-carbonyl)-4-fluorophenyl)-3-(6-azaspiro[2.5]octan-6-yl)isonicotinamide]
6 | 1540 | Cc1ccc(NC(=O)c2ccncc2N2CCC3(CC2)CC3)cc1C(=O)N1CCC(F)(F)CC1 [Example 115-4, N-(3-(4,4-difluoropiperidine-1-carbonyl)-4-methylphenyl)-3-(6-azaspiro[2.5]octan-6-yl)isonicotinamide]
7 | 1680 | O=C(Nc1cccc(C(=O)N2CCCC(F)(F)C2)c1)c1ccncc1N1CCC2(CC1)CC2 [Example 115-5, N-(3-(3,3-difluoropiperidine-1-carbonyl)phenyl)-3-(6-azaspiro[2.5]octan-6-yl)isonicotinamide]

Further lines, the compound ahead of its results:

Row | SMILES | IC50 [nM]
8 | CC(C)(C)NS(=O)(=O)c1cccc(NC(=O)c2ccc(NS(C)(=O)=O)nc2N2CCC3(CC2)CC3)c1 [Example 110, N-(3-(N-(tert-butyl)sulfamoyl)phenyl)-6-(methylsulfonamido)-2-(6-azaspiro[2.5]octan-6-yl)nicotinamide] | 91
9 | Cc1ccc(NC(=O)c2ccc(NC(C)(C)CO)nc2N2CCC3(CC2)CC3)cc1-c1ccoc1 [Example 111-1, N-(3-(furan-3-yl)-4-methylphenyl)-6-((1-hydroxy-2-methylpropan-2-yl)amino)-2-(6-azaspiro[2.5]octan-6-yl)nicotinamide] | 265
10 | Cc1ccc(NC(=O)c2ccc(NC(C)(C)CO)nc2N2CCC3(CC2)CC3)cc1-c1ccco1 [Example 111-2, N-(3-(furan-2-yl)-4-methylphenyl)-6-((1-hydroxy-2-methylpropan-2-yl)amino)-2-(6-azaspiro[2.5]octan-6-yl)nicotinamide] | 277
11 | Cc1ccc(NC(=O)c2ccc(NC(C)(C)CO)nc2N2CCC3(CC2)CC3)cc1-c1cc[nH]n1 [Example 111-3, 6-((1-hydroxy-2-methylpropan-2-yl)amino)-N-(4-methyl-3-(1H-pyrazol-3-yl)phenyl)-2-(6-azaspiro[2.5]octan-6-yl)nicotinamide] | 342
12 | Cc1ccc(NC(=O)c2ccc(NC(C)(C)CO)nc2N2CCC3(CC2)CC3)cc1-c1nccs1 [Example 111-4, 6-((1-hydroxy-2-methylpropan-2-yl)amino)-N-(4-methyl-3-(thiazol-2-yl)phenyl)-2-(6-azaspiro[2.5]octan-6-yl)nicotinamide] | 349
13 | Cc1coc(-c2cccc(NC(=O)c3ccc(NC(C)(C)CO)nc3N3CCC4(CC3)CC4)c2)n1 [Example 111-5, 6-((1-hydroxy-2-methylpropan-2-yl)amino)-N-(3-(4-methyloxazol-2-yl)phenyl)-2-(6-azaspiro[2.5]octan-6-yl)nicotinamide] | 225
14 | Cc1cnc(-c2cccc(NC(=O)c3ccc(NC(C)(C)CO)nc3N3CCC4(CC3)CC4)c2)o1 [Example 111-6, 6-((1-hydroxy-2-methylpropan-2-yl)amino)-N-(3-(5-methyloxazol-2-yl)phenyl)-2-(6-azaspiro[2.5]octan-6-yl)nicotinamide] | 135
15 | Cc1noc(-c2cccc(NC(=O)c3ccc(NC(C)(C)CO)nc3N3CCC4(CC3)CC4)c2)n1 [Example 111-7, 6-((1-hydroxy-2-methylpropan-2-yl)amino)-N-(3-(3-methyl-1,2,4-oxadiazol-5-yl)phenyl)-2-(6-azaspiro[2.5]octan-6-yl)nicotinamide] | 417
16 | Cn1nccc1-c1cccc(NC(=O)c2ccc(NC(C)(C)CO)nc2N2CCC3(CC2)CC3)c1 [Example 111-8, 6-((1-hydroxy-2-methylpropan-2-yl)amino)-N-(3-(1-methyl-1H-pyrazol-5-yl)phenyl)-2-(6-azaspiro[2.5]octan-6-yl)nicotinamide] | 542
17 | Cn1ccnc1-c1cccc(NC(=O)c2ccc(NC(C)(C)CO)nc2N2CCC3(CC2)CC3)c1 [Example 111-9, 6-((1-hydroxy-2-methylpropan-2-yl)amino)-N-(3-(1-methyl-1H-imidazol-2-yl)phenyl)-2-(6-azaspiro[2.5]octan-6-yl)nicotinamide] | 437
18 | Cc1ccc(NC(=O)c2ccc(NC(C)(C)CO)nc2N2CCC3(CC2)CC3)cc1-c1ccccn1 [Example 111-10, 6-((1-hydroxy-2-methylpropan-2-yl)amino)-N-(4-methyl-3-(pyridin-2-yl)phenyl)-2-(6-azaspiro[2.5]octan-6-yl)nicotinamide] | 303
19 | Cc1ccc(NC(=O)c2ccc(NC(C)(C)CO)nc2N2CCC3(CC2)CC3)cc1-c1cccnc1 [Example 111-11, 6-((1-hydroxy-2-methylpropan-2-yl)amino)-N-(4-methyl-3-(pyridin-3-yl)phenyl)-2-(6-azaspiro[2.5]octan-6-yl)nicotinamide] | 306
20 | Cc1ccc(NC(=O)c2ccc(NC(C)(C)CO)nc2N2CCC3(CC2)CC3)cc1-c1ccncc1 [Example 111-12, 6-((1-hydroxy-2-methylpropan-2-yl)amino)-N-(4-methyl-3-(pyridin-4-yl)phenyl)-2-(6-azaspiro[2.5]octan-6-yl)nicotinamide] | 386
21 | Cc1cncc(-c2cc(NC(=O)c3ccc(NC(C)(C)CO)nc3N3CCC4(CC3)CC4)ccc2C)c1 [Example 111-13, 6-((1-hydroxy-2-methylpropan-2-yl)amino)-N-(4-methyl-3-(5-methylpyridin-3-yl)phenyl)-2-(6-azaspiro[2.5]octan-6-yl)nicotinamide] | 165
22 | CC(C)(C)NS(=O)(=O)c1cc(NC(=O)c2ccc(NC(C)(C)CO)nc2N2CCC3(CC2)CC3)cc(-c2ccco2)c1 [Example 112, N-(3-(N-(tert-butyl)sulfamoyl)-5-(furan-2-yl)phenyl)-6-((1-hydroxy-2-methylpropan-2-yl)amino)-2-(6-azaspiro[2.5]octan-6-yl)nicotinamide] | 170
23 | CC(C)(C)NS(=O)(=O)c1cc(NC(=O)c2ccc(NC(C)(C)CO)nc2N2CCC3(CC2)CC3)cc(C2CC2)c1 [Example 112-2, N-(3-(N-(tert-butyl)sulfamoyl)-5-cyclopropylphenyl)-6-((1-hydroxy-2-methylpropan-2-yl)amino)-2-(6-azaspiro[2.5]octan-6-yl)nicotinamide] | 633
24 | CC(C)(C)NS(=O)(=O)c1cc(NC(=O)c2ccc(NC(C)(C)CO)nc2N2CCC3(CC2)CC3)cc(-c2cccnc2)c1 [Example 112-3, N-(3-(N-(tert-butyl)sulfamoyl)-5-(pyridin-3-yl)phenyl)-6-((1-hydroxy-2-methylpropan-2-yl)amino)-2-(6-azaspiro[2.5]octan-6-yl)nicotinamide] | 561
25 | CC(C)(C)NS(=O)(=O)c1cccc(NC(=O)c2ccc(CS(C)(=O)=O)nc2N2CCC3(CC2)CC3)c1 [Example 113, N-(3-(N-(tert-butyl)sulfamoyl)phenyl)-6-((methylsulfonyl)methyl)-2-(6-azaspiro[2.5]octan-6-yl)nicotinamide] | 103
26 | CC(C)(C)NS(=O)(=O)c1cccc(NC(=O)c2ccncc2N2CCC3(CC2)CC3)c1 [Example 114, N-(3-(N-(tert-butyl)sulfamoyl)phenyl)-3-(6-azaspiro[2.5]octan-6-yl)isonicotinamide] | 114
27 | Cc1ccc(NC(=O)c2ccncc2N2CCC3(CC2)CC3)cc1C(=O)N1CCCC(F)(F)C1 [Example 115, N-(3-(3,3-difluoropiperidine-1-carbonyl)-4-methylphenyl)-3-(6-azaspiro[2.5]octan-6-yl)isonicotinamide] | 606
